In patent publication US9725434B2, “Hydroxy-substituted orexin receptor antagonists” (MERCK SHARP & DOHME CORP., priority 2013, dated 2017):
Values belong to the molecule of their own block, whether it stands above or below them.

Assays:
[1] = target: human orexin-1 receptor (hOX1R) (Homo sapiens, UniProt O43613); assay: FLIPR Ca2+ Flux Assay, hOX1R; type: cell-based; details: CHO cells expressing hOX1R; agonist 70 pM Ala-6,12 orexin-A
Experimental: (§1) Chinese hamster ovary (CHO) cells expressing the human orexin-1 receptor (hOX1R) or the human orexin-2 receptor (hOX2R) were grown in Iscove's modified DMEM containing 2 mM L-glutamine, […], 1% hypoxanthine-thymidine supplement, 100 U/ml penicillin, 100 μg/ml streptomycin and 10% heat-inactivated fetal calf serum (FCS). The cells were seeded at 20,000 cells/well into Becton-Dickinson black 384-well clear bottom sterile plates coated with poly-D-lysine. All reagents were from GIBCO-Invitrogen Corp. The seeded plates were incubated overnight at 37° C. and 5% CO2. Ala-6,12 human orexin-A, used as the agonist, was prepared as a 1 mM stock solution in 1% bovine serum albumin (BSA) and diluted in assay buffer (HBSS containing 20 mM HEPES, 0.1% BSA and 2.5 mM probenecid, pH7.4) for use in the assay at a final concentration of 70 pM. Test compounds were prepared as 10 mM stock solution in DMSO, then diluted in 384-well plates, first in DMSO, then assay buffer.
On the day of the assay, cells were washed 3× with 100 μl assay buffer and then incubated for 60 minutes (37° C., 5% CO2) in 60 μl assay buffer containing 1 μM Fluo-4AM ester, 0.02% pluronic acid, and 1% BSA. The dye loading solution was then aspirated and cells were washed 3× with 100 μl assay buffer. 30 μl of that same buffer was left in each well. Within the Fluorescent Imaging Plate Reader (FLIPR, Molecular Devices), test compounds were added to the plate in a volume of 25 μl, incubated for 5 minutes, and then 25 μl of agonist was added. Fluorescence was measured for each well at 1 second intervals for 5 minutes, and the height of each fluorescence peak was compared to the height of the fluorescence peak induced by 70 pM of Ala-6,12 orexin-A with buffer in place of test compound.

[2] = target: human orexin-2 receptor (hOX2R) (Homo sapiens (Human), UniProt O43614); assay: FLIPR Ca2+ Flux Assay, hOX2R; type: cell-based; details: CHO cells expressing hOX2R; agonist 70 pM Ala-6,12 orexin-A
Chain of human orexin-2 receptor (hOX2R) (O43614 whole entry): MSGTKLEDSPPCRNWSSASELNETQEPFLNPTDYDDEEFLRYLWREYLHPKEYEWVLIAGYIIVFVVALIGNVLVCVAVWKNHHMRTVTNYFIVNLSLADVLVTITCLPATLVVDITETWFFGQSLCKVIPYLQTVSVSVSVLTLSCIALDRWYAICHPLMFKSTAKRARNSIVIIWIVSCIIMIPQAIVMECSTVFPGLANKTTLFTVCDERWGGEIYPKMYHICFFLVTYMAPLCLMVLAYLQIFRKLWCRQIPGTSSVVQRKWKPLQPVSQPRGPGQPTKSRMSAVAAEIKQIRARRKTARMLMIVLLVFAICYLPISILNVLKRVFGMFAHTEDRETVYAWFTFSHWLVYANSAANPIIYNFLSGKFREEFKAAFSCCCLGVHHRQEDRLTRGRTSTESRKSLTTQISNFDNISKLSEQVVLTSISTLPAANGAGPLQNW
Experimental: In a typical experiment the OX1 and OX2 receptor antagonistic activity of the compounds of the present invention was determined in accordance with the following experimental method. For intracellular calcium measurements, Chinese hamster ovary (CHO) cells expressing the rat orexin-1 receptor or the human orexin-2 receptor, are grown in Iscove's modified DMEM containing 2 mM L-glutamine, […], 1% hypoxanthine-thymidine supplement, 100 U/ml penicillin, 100 μg/ml streptomycin and 10% heat-inactivated fetal calf serum (FCS). The cells are seeded at 20,000 cells/well into Becton-Dickinson black 384-well clear bottom sterile plates coated with poly-D-lysine. All reagents were from GIBCO-Invitrogen Corp. The seeded plates are incubated overnight at 37° C. and 5% CO2. Ala-6,12 human orexin-A as the agonist is prepared as a 1 mM stock solution in 1% bovine serum albumin (BSA) and diluted in assay buffer (HBSS containing 20 mM HEPES, 0.1% BSA and 2.5 mM probenecid, pH7.4) for use in the assay at a final concentration of 70 pM. Test compounds are prepared as 10 mM stock solution in DMSO, then diluted in 384-well plates, first in DMSO, then assay buffer. On the day of the assay, cells are washed 3 times with 100 μl assay buffer and then incubated for 60 min (37° C., 5% CO2) in 60 μl assay buffer containing 1 μM Fluo-4AM ester, 0.02% pluronic acid, and 1% BSA. The dye loading solution is then aspirated and cells are washed 3 times with 100 μl assay buffer. 30 μl of that same buffer is left in each well. Within the Fluorescent Imaging Plate Reader (FLIPR, Molecular Devices), test compounds are added to the plate in a volume of 25 μl, incubated for 5 min and finally 25 μl of agonist is added. Fluorescence is measured for each well at 1 second intervals for 5 minutes and the height of each fluorescence peak is compared to the height of the fluorescence peak induced by 70 pM Ala-6,12 orexin-A with buffer in place of antagonist. […] Alternatively, compound potency can be assessed by a radioligand binding assay (described in Bergman et. al. Bioorg. Med. Chem. Lett. 2008, 18, 1425-1430) in which the inhibition constant (Ki) is determined in membranes prepared from CHO cells expressing either the OX1 or OX2 receptor. The intrinsic orexin receptor antagonist activity of a compound which may be used in the present invention may be determined by these assays.
as §1
On the day of the assay, cells were washed 3× with 100 μl assay buffer and then incubated for 60 minutes (37° C., 5% CO2) in 60 μl assay buffer containing 1 μM Fluo-4AM ester, 0.02% pluronic acid, and 1% BSA. The dye loading solution was then aspirated and cells were washed 3× with 100 μl assay buffer.

Molecule: CC(O)c1cccc(O[C@@H]2CC[C@@H](C)N(C(=O)c3ccccc3-n3nccn3)C2)c1 (stereo partly drawn) [Example 1, 1-(3-{[(3R,6R)-6-Methyl-1-{[2-(2H-1,2,3-triazol-2-yl)phenyl]carbonyl}piperidin-3-yl]oxy}phenyl)ethanol]
IC50 [1]: 4510 nM
IC50 [2]: 98 nM

Molecule: CC(O)c1cccc(O[C@@H]2CC[C@@H](C)N(C(=O)c3ccccc3-c3ncccn3)C2)c1 (stereo partly drawn) [Example 3, 1-[3-({(3R,6R)-6-Methyl-1-[(2-pyrimidin-2-ylphenyl)carbonyl]piperidin-3-yl}oxy)phenyl]ethanol]
IC50 [1]: 4240 nM
IC50 [2]: 119 nM

IC50 [1]: 996 nM
IC50 [2]: 20 nM
Molecule: C[C@@H]1CC[C@@H](Oc2cc(C(C)(C)O)ccn2)CN1C(=O)c1ccccc1-n1nccn1 [Example 4, 2-(2-{[(3R,6R)-6-Methyl-1-{[2-(2H-1,2,3-triazol-2-yl)phenyl]carbonyl}piperidin-3-yl]oxy}pyridin-4-yl)propan-2-ol]

Molecule: C[C@@H]1CC[C@@H](Oc2cccc(C(C)(O)C(F)(F)F)c2)CN1C(=O)c1ccccc1-n1nccn1 (stereo partly drawn) [Example 5, 1,1,1-Trifluoro-2-(3-{[(3R,6R)-6-methyl-1-{[2-(2H-1,2,3-triazol-2-yl)phenyl]carbonyl}piperidin-3-yl]oxy}phenyl)propan-2-ol]
IC50 [1]: 5540 nM
IC50 [2]: 89 nM

Molecule: C[C@@H]1CC[C@@H](Oc2cccc(C(C)(C)O)c2)CN1C(=O)c1ccccc1-n1nccn1 [Example 6, 2-(3-{[(3R,6R)-6-Methyl-1-{[2-(2H-1,2,3-triazol-2-yl)phenyl]carbonyl}piperidin-3-yl]oxy}phenyl)propan-2-ol]
IC50 [1]: 10000 nM
IC50 [2]: 32 nM

Molecule: C[C@@H]1CC[C@@H](Oc2cc(C3(O)CCC3)ccn2)CN1C(=O)c1ccccc1-n1nccn1 [Example 8, 1-(2-{[(3R,6R)-6-methyl-1-{[2-(2H-1,2,3-triazol-2-yl)phenyl]carbonyl}piperidin-3-yl]oxy}pyridin-4-yl)cyclobutanol]
IC50 [1]: 1520 nM
IC50 [2]: 41 nM

Molecule: CCC(C)(O)c1ccnc(O[C@@H]2CC[C@@H](C)N(C(=O)c3ccccc3-n3nccn3)C2)c1 (stereo partly drawn) [Example 9, 2-(2-{[(3R,6R)-6-Methyl-1-{[2-(2H-1,2,3-triazol-2-yl)phenyl]carbonyl}piperidin-3-yl]oxy}pyridin-4-yl)butan-2-ol]
IC50 [1]: 436 nM
IC50 [2]: 14 nM

Molecule: C[C@@H]1CC[C@@H](Oc2cc([C@](C)(O)C3CC3)ccn2)CN1C(=O)c1ccccc1-n1nccn1 [Example 11, (1R)-1-cyclopropyl-1-(2-{[(3R,6R)-6-methyl-1-{[2-(2H-1,2,3-triazol-2-yl)phenyl]carbonyl}piperidin-3-yl]oxy}pyridin-4-yl)ethanol]
IC50 [1]: 297 nM
IC50 [2]: 14 nM

Molecule: C[C@@H]1CC[C@@H](Oc2cc([C@@](C)(O)C3CC3)ccn2)CN1C(=O)c1ccccc1-n1nccn1 [Example 12, (1S)-1-cyclopropyl-1-(2-{[(3R,6R)-6-methyl-1-{[2-(2H-1,2,3-triazol-2-yl)phenyl]carbonyl}piperidin-3-yl]oxy}pyridin-4-yl)ethanol]
IC50 [1]: 241 nM
IC50 [2]: 13 nM

Molecule: C[C@@H]1CC[C@@H](Oc2cccc(C(C)(O)C3CC3)c2)CN1C(=O)c1ccccc1-n1nccn1 (stereo partly drawn) [Example 15, 1-Cyclopropyl-1-(3-{[(3R,6R)-6-methyl-1-{[2-(2H-1,2,3-triazol-2-yl)phenyl]carbonyl}-piperidin-3-yl]oxy}phenyl)ethanol]
IC50 [1]: 2100 nM
IC50 [2]: 36 nM

Molecule: C[C@@H]1CC[C@@H](Oc2cccc(C(C)(O)C3CCCC3)c2)CN1C(=O)c1ccccc1-n1nccn1 (stereo partly drawn) [Example 16, 1-Cyclopentyl-1-(3-{[(3R,6R)-6-methyl-1-{[2-(2H-1,2,3-triazol-2-yl)phenyl]carbonyl}-piperidin-3-yl]oxy}phenyl)ethanol]
IC50 [1]: 3420 nM
IC50 [2]: 86 nM

Molecule: C[C@@H]1CC[C@@H](Oc2cccc(C(C)(O)C3CCC3)c2)CN1C(=O)c1ccccc1-n1nccn1 (stereo partly drawn) [Example 17, 1-Cyclobutyl-1-(3-{[(3R,6R)-6-methyl-1-{[2-(2H-1,2,3-triazol-2-yl)phenyl]carbonyl}piperidin-3-yl]oxy}phenyl)ethanol]
IC50 [1]: 8690 nM
IC50 [2]: 82 nM

Molecule: CCC(C)(O)c1cccc(O[C@@H]2CC[C@@H](C)N(C(=O)c3ccccc3-n3nccn3)C2)c1 (stereo partly drawn) [Example 18, 2-(3-{[(3R,6R)-6-Methyl-1-{[2-(2H-1,2,3-triazol-2-yl)phenyl]carbonyl}piperidin-3-yl]oxy}phenyl)butan-2-ol]
IC50 [1]: 827 nM
IC50 [2]: 24 nM

Molecule: C[C@@H]1CC[C@@H](Oc2cc(C(C)(C)O)ccc2F)CN1C(=O)c1ccccc1-n1nccn1 [Example 20, 2-(4-Fluoro-3-{[(3R,6R)-6-methyl-1-{[2-(2H-1,2,3-triazol-2-yl)phenyl]carbonyl}piperidin-3-yl]oxy}phenyl)propan-2-ol]
IC50 [1]: 10000 nM
IC50 [2]: 354 nM

Molecule: C[C@@H]1CC[C@@H](Oc2nccc(C(C)(C)O)c2F)CN1C(=O)c1ccccc1-n1nccn1 [Example 21, 2-(3-Fluoro-2-{[(3R,6R)-6-methyl-1-{[2-(2H-1,2,3-triazol-2-yl)phenyl]carbonyl}piperidin-3-yl]oxy}pyridin-4-yl)propan-2-ol]
IC50 [1]: 259 nM
IC50 [2]: 6 nM

Molecule: C[C@@H]1CC[C@@H](Oc2ccc3c(c2)C(O)CC3)CN1C(=O)c1ccccc1-n1nccn1 (stereo partly drawn) [Example 24, 6-{[(3R,6R)-6-Methyl-1-{[2-(2H-1,2,3-triazol-2-yl)phenyl]carbonyl}piperidin-3-yl]oxy}-2,3-dihydro-1H-inden-1-ol]
IC50 [1]: 2070 nM

Molecule: C[C@@H]1CC[C@@H](Oc2cccc3c2CC[C@H]3O)CN1C(=O)c1ccccc1-n1nccn1 [Example 25, (1R)-4-{[(3R,6R)-6-Methyl-1-{[2-(2H-1,2,3-triazol-2-yl)phenyl]carbonyl}piperidin-3-yl]oxy}-2,3-dihydro-1H-inden-1-ol]
IC50 [1]: 7200 nM
IC50 [2]: 238 nM

Molecule: C[C@@H]1CC[C@@H](Oc2cccc3c2CC[C@@H]3O)CN1C(=O)c1ccccc1-n1nccn1 [Example 26, (1S)-4-{[(3R,6R)-6-Methyl-1-{[2-(2H-1,2,3-triazol-2-yl)phenyl]carbonyl}piperidin-3-yl]oxy}-2,3-dihydro-1H-inden-1-ol]
IC50 [1]: 1530 nM
IC50 [2]: 25 nM

Molecule: C[C@@H]1CC[C@@H](Oc2cccc3c2CCC[C@@]3(C)O)CN1C(=O)c1ccccc1-n1nccn1 [Example 29, (1R)-1-Methyl-5-{[(3R,6R)-6-methyl-1-{[2-(2H-1,2,3-triazol-2-yl)phenyl]carbonyl}piperidin-3-yl]oxy}-1,2,3,4-tetrahydronaphthalen-1-ol]
IC50 [1]: 10000 nM
IC50 [2]: 123 nM

Molecule: (1R)-6-{[(3R,6R)-6-Methyl-1-{[2-(2H-1,2,3-triazol-2-yl)phenyl]carbonyl}piperidin-3-yl]oxy}-2,3-dihydro-1H-inden-1-ol [Example 27]
IC50 [1]: 1340 nM

Molecule: (1S)-6-{[(3R,6R)-6-Methyl-1-{[2-(2H-1,2,3-triazol-2-yl)phenyl]carbonyl}piperidin-3-yl]oxy}-2,3-dihydro-1H-inden-1-ol [Example 28]
IC50 [1]: 10000 nM
